Data on one compound can be found in patent publication US12109303B2, “Orally dissolving antimicrobial film compositions and methods of their use” (ISHA Therapeutics LLC, priority 2022, dated 2024).

Data set [1] in a line: Solubility in MiliQ water, quantified by HPLC. In kind it is physicochemical. The settings on record: thermodynamic from solid, 0.5 mL MiliQ water, room temperature, 6 hours shaking, read-out: Solubility: average concentration of amphotericin B.
For data set [2], the system named is Candida albicans. The data set can be described thus: Growth inhibition assay with resazurin colorimetric readout (MIC48h). In kind it is cell-based. The settings on record: RPMI 1640, 30° C., 48±2 hours, unmodified drug in DMSO, film in aqueous media. The text has this: Tis Example provides a description of antifungal efficacy testing wherein minimum inhibitor concentration (MIC) of the active pharmaceutical ingredient amphotericin B in the orally dissolvable films disclosed herein compared to that of unmodified amphotericin B. The test organism utilized in this experiment was Candida albicans.
Three to five colonies of a single Candida albicans strain were selected from stock YPD agar (agar comprising yeast extract, peptone, and dextrose; also referred to as YEPD agar) plates and suspended in Roswell Park Memorial Institute (RPMI) 1640 medium. The process was repeated to form a number of suspensions of Candida albicans. The Candida albicans suspensions were then each diluted to achieve an initial inoculum with an Abs600 of 0.010.
Test compositions of unmodified amphotericin B in DMSO and orally dissolvable films of amphotericin B in aqueous media were added, followed by serial dilution of the RPMI media.
A growth inhibition assay was performed in triplicate and results determined using a resazurin colorimetric assay. All plated compositions were incubated at 30° C. for 48±2 hours. […] After incubation, 20 μL of resazurin dye (0.02% w/v) was added to each well and observed for a change in dye color to determine cell viability.
Background: Resazurin is reduced to fluorescent resorufin, in cell work by metabolically active cells.

Data set [3] concerns Candida albicans. The data set can be described thus: Resazurin microtiter assay (REMA) MIC. In kind it is cell-based. Here is the method: (§1) This Example provides a description of antifungal efficacy testing wherein minimum inhibitor concentration (MIC) of the active pharmaceutical ingredient amphotericin B in the orally dissolvable films disclosed herein compared to that of unmodified amphotericin B. The test organisms utilized in this experiment were Candida tropicalis and Candida albicans.
(§2) A resazurin microtiter assay (REMA) assay was performed using orally dissolvable films prepared according to the process described in Example 3 and unmodified amphotericin B. Samples were run in triplicate as Sets 1-3 for each test material against each pathogen.
(§3) Images of the microtiter plates used to conduct this experiment are shown in FIG. 5, illustrating the results of MIC assay. […] Results of the orally dissolvable film (“ODF (A)”) and unmodified amphotericin B (“AmpB (B)”) against Candida tropicalis and Candida albicans are shown in the microtiter plates on the left and right, respectively. The first row of each microtiter plate (top) contains a positive control (“P.C.”). The second row of each microtiter plate contains a negative control (“N.C.”).

The test system of another data set is Candida tropicalis. The data set can be described thus: Resazurin microtiter assay (REMA) MIC. In kind it is cell-based. Here is the method: as §1, §2, §3
For data set [4] the following is noted: limited solubility and permeability; cited from earlier work.
The mark [5] stands for this setting: read-out: Minimum Inhibitory Concentration, Avg.
Where [6] appears, read: read-out: Minimum Inhibitory Concentration, Set 1.
Where [7] appears, read: read-out: Minimum Inhibitory Concentration, Set 2.
Where [8] appears, read: read-out: Minimum Inhibitory Concentration, Set 3.

Molecules are shown by their SMILES. In brackets after ≈: the same amount, converted by molar mass. Where two headings read alike, the source gives them in different places.

In the case of `C[C@@H]1[C@H](O)[C@@H](C)/C=C/C=C/C=C/C=C/C=C/C=C/C=C/[C@H](O[C@@H]2O[C@H](C)[C@@H](O)[C@H](N)[C@@H]2O)C[C@@H]2O[C@](O)(C[C@@H](O)C[C@@H](O)[C@H](O)CC[C@@H](O)C[C@@H](O)CC(=O)O[C@H]1C)C[C@H](O)[C@H]2C(=O)O` [AmpB, (1R,3S,5R,6R,9R,11R,15S,16R,17R,18S,19E,21E, 23E, 25E, 27E,29E,31E,33R,35S,36R,37S)-33-[(2R,3S,4S,5S,6R)-4-amino-3,5-di hydroxy-6-methyloxan-2-yl] oxy-1,3,5,6,9,11,17,37-octahydroxy-15,16,18-trimethyl-13-oxo-14,39-dioxabicyclo[33.3.1]nonatriaconta-19,21,23, 25, 27,29,31-heptaene-36-carboxylic acid], the solubility at 6 h in data set [1] is 630 µg/mL (≈ 682 µM). Moreover, the MIC turned out to be 1.25 µM (≈ 1.16 µg/mL) with Candida albicans [2]; 1.1 µg/mL (≈ 1.19 µM) in the data set with Candida albicans [3] (read-out: Average MIC); 1.1 µg/mL (≈ 1.19 µM) in the data set with Candida albicans [3] (setting [5]); 1.1 µg/mL (≈ 1.19 µM) with Candida albicans [3] (setting [6]); 1.1 µg/mL (≈ 1.19 µM) with Candida albicans [3] (setting [7]); 1.1 µg/mL (≈ 1.19 µM) with Candida albicans [3] (setting [8]). The MIC in the data set with Candida tropicalis (read-out: Average MIC), in the data set with Candida tropicalis (setting [5]), in the data set with Candida tropicalis (setting [6]), in the data set with Candida tropicalis (setting [7]) and in the data set on Candida tropicalis (setting [8]) was 1.1 µg/mL (≈ 1.19 µM) throughout. Further, the “Biopharmaceutics Classification System (BCS) class” value in data set [4] is given as “class IV”.
